From patent publication US20040115614A1, “Electrophysiology assay methods” (priority 2002, published 2004)
Values joined by “and” are separate entries in the source; they are usually repeats but may differ in a detail not shown here. Equal values may be shown once. Read-outs that look alike come from different tables or passages of the source.

Key:
[1] = system: Na^+ channels; format: cell-based, human; settings: read-out: Tetrodotoxin IC50
[2] = system: voltage-gated sodium channels; format: cell-based, human
[3] = Method: The amplitude and rate of the observed depolarization was reduced by the removal of extracellular Na^+ concentration. […] This reduction effect was more pronounced in the absence of extracellular Na^+ and in cells that were not pre-incubated with the compound.

In the case of `NC1=N[C@H](O)[C@H]2[C@H]3O[C@]4(O)O[C@@H]([C@@H](O)[C@@]2(N1)[C@@H]4O)[C@]3(O)CO` [TTX, tetrodotoxin], the IC50 [1] is reported as 9.5 nM and 6.69 nM, the “Amplitude (% max)” value [2] is reported as 24.260 ± 0.290 % max and the “Rate (% change/ s)” value [2] is reported as 0.001 ± 0.001 % change/ s. The “effect on voltage-induced depolarizations” value [2] was “blocked the depolarizations in a dose-dependent manner”, the “voltage-induced changes in plasma membrane potential” value [2] was “completely abolished” and the IC50 ([2]; read-out: IC50 for block of voltage-induced depolarizations) was roughly 9 nM.

In the case of `COc1cc(N)c(Cl)cc1C(=O)NC1CCN(CCCOc2ccc(F)cc2)CC1OC` (stereo not shown) [cisapride], the “KCl-induced plasma membrane depolarization” value [3] is reported as “reduced”.

In the case of `Clc1ccccc1C(c1ccccc1)(c1ccccc1)n1ccnc1` [Clotrimazole], the “Rate (% change/ s)” value ([2]; 1 μM, 30 min pre-incubation, 8 V train of 750 μs pulses, 8 pulses per s for 3 s) is reported as 0.124 ± 0.024 % change/ s and the “Amplitude (% max)” value ([2]; 1 μM, 30 min pre-incubation, 8 V train, % of maximal depolarization with 50 mM KCl) is reported as 33.92 ± 0.320 % max.

For `COc1ccc(CCN(C)CCCC(C#N)(c2ccc(OC)c(OC)c2)C(C)C)cc1OC` (stereo not shown) [Verapamil], the “Amplitude (% max)” value [2] was 32.84 ± 0.330 % max and the “Rate (% change/ s)” value [2] was 0.141 ± 0.014 % change/ s.

With Charybdotoxin the “Rate (% change/ s)” value ([2]; 100 nM, 30 min pre-incubation, 8 V train of 750 μs pulses, 8 pulses per s for 3 s) was 0.115 ± 0.013 % change/ s and the “Amplitude (% max)” value ([2]; 100 nM, 30 min pre-incubation, 8 V train, % of maximal depolarization with 50 mM KCl) was 34.09 ± 0.326 % max.
